According to article PMC12668310, “High‐Throughput Synthesis and Screening of a Cyanimide Library Identifies Selective Inhibitors of ISG15‐Specific Protease mUSP18” (Angewandte Chemie (International Ed. in English), 2025):

Test system: cellular ISGylation in EL4 cells
Experiment: ISGylation accumulation in mouse IFN-β-stimulated EL4 cells (anti-mISG15 western blot)
Assay type: cell-based
Conditions: 4 h treatment; for effect on cellular ISGylation: anti-mISG15 blot
Procedure: Figure 6 Inhibition of murine USP18 activity in living cells. a) Gel‐based ABPP potency assessment using a Rho‐mISG15ct‐PA probe in HEK293T cells overexpressing Flag‐mUSP18. At 24 h following transfection, cells were incubated with DMSO or increasing concentrations of indicated inhibitors for 4 h, lysed, and treated with Rho‐mISG15ct‐PA probe. Top panel: fluorescence scan. Middle panel: anti‐Flag western blot. Bottom panel: anti‐GAPDH western blot confirms equal loading. b) Accumulation of ISGylation in mouse IFN‐β‐stimulated EL4 cells. At 24 h following mouse IFN‐β treatment, cells were incubated with DMSO or increasing concentrations of indicated inhibitors for 4 h, lysed, and treated with Rho‐mISG15ct‐PA probe. Top panel: anti‐mISG15 western blot. Middle panel: fluorescence scan. Bottom panel: anti‐β‐actin western blot confirms equal loading.
Ultimately, we were interested in whether USP18 inhibitor treatment could result in a relevant phenotype in cells. USP18 is the major deISGylase to remove ISG15 from target proteins, and genetic inactivation of USP18 isopeptidase activity leads to enhanced ISGylation in vivo and in cells.^[ [26] ^] We therefore examined whether the USP18 inhibitors enhance cellular ISGylation. Accordingly, EL4 cells were stimulated with IFN‐β to induce the ISG15 machinery, prior to treatment with the inhibitors. After cell lysis and SDS‐PAGE, ISGylated proteins were stained by immunoblotting with an ISG15 antibody (Figure 6b, top panel). […] To confirm inhibition of endogenous USP18 in these experiments, samples were post‐lysis treated with Rho‐mISG15ct‐PA probe.
Generation of ISGylation and in-cell inhibition assay
Mouse EL4 cells were stimulated with 300 U/mL mouse IFN-β. At 24 hours following stimulation, cells were incubated with indicated compounds at the indicated final concentrations at 37 °C for 4 hours, then washed twice with PBS and harvested for further […]
Activity-based probe labelling
The in-cell inhibition of DUBs and mUSP18 was assessed using activity-based probe labelling assays. In brief, cell pellets were resuspended in HR buffer (50 mM Tris-HCl, 5 mM MgCl 2, 250 mM sucrose, 2 mM TCEP and a Protease inhibitor tablet (Roche), pH 7.4), and lysed by sonication (Bioruptor, Diagenode, high intensity for 10 minutes with an ON/OFF cycle of 30 seconds) at 4°C. 40 μg clarified cell lysate was incubated with Rhodamine-mISG15ct-propargylamide probe[1] (final concentration 1 μM) or Rhodamine-Ubiquitin-propargylamide probe[13] (final concentration 1 μM) at 37 °C for 30 min. Reactions were stopped by the addition of LDS (lithium dodecyl sulfate) sample buffer (Invitrogen Life Technologies, Carlsbad, CA, USA) containing 2.5% β-mercaptoethanol, followed by boiling for 7 minutes.
SDS-PAGE, in-gel fluorescence scanning, and immunoblotting
Samples were resolved on precast Bis-Tris NuPAGE Gels (Invitrogen, including 4-12%, and 10% for different samples) using MOPS buffer (Invitrogen Life Technologies, Carlsbad, CA, USA). For fluorescence scan, labeled enzymes were visualized by in-gel fluorescence using a Typhoon FLA 9500 imaging system (GE Healthcare Life Sciences) (Rhodamine channel for probe, Cy5 channel for protein marker).
For immunoblotting, proteins were transferred to a nitrocellulose membrane (Protan BA85, 0.45 μm, GE Healthcare) at 300 mA for 3 hours. […]

| SMILES | concentration of maximum accumulation of ISGylation [µM] | effect on cellular ISGylation |
| --- | --- | --- |
| Cc1cc(C(=O)N[C@H]2C[C@@H]3CN(C#N)C[C@@H]3C2)ccc1Br [BB07CA28] | 10 | significantly elevated cellular ISGylation |
| Cc1cc(C(=O)N[C@H]2C[C@@H]3CN(C#N)C[C@@H]3C2)ccc1C(C)C [BB07CA902] | 10 | significantly elevated cellular ISGylation |
